This note sets out measurements from a melting point compilation (Tetko et al.; mined from patent text by program, amines drawn as free bases though some values may be those of a salt).

Structures are written as SMILES.

Turning to `CCOC(=O)CSc1c(C(=O)OCC)[nH]c2cc(Cl)cc(Cl)c12`, the melting point was in the range of 152 to 153 °C.
Compound `CCCCCc1cc(O)c2c(c1)OC(C)(C)[C@@H]1CCC(=O)C[C@H]21` (relative stereo) yielded a melting point of 120 to 134 °C.
As for `Clc1nc(-c2ccccc2)nc2c1Cc1ccccc1O2`, the figure is 168 to 170 °C.
The compound `O=S1CCON=C1c1nc2ccccc2s1` (configuration not stated) returned a melting point of 192 to 195 °C.
Consider `C[C@@H](C(=O)O)N(C)C(=O)c1cc(C(F)(F)F)cc([N+](=O)[O-])c1N`, for which the melting point was found to be 136 °C.
`Cc1cccc(C)c1N1Cc2ccccc2P1(C)=O` (configuration not stated): the melting point lay within 128 to 129 °C.
The compound `Cc1cccc(C(=O)Nc2c[nH]nc2C(=O)NCC(O)Cc2ccccc2)n1` (configuration not stated) showed a melting point of 184 to 185 °C.
To `CCC1(CC(=O)OC)OCC(O)c2c1[nH]c1ccccc21` (configuration not stated) belongs 86 to 90 °C; to `Cc1[nH]c(C(=O)NCc2ccc3c(c2)OCO3)c(C)c1-c1nc2ccc(C(=O)c3ccccc3)cc2[nH]1`, 165 to 167 °C.
`CCN(CC)c1cc(C)c2ncc(C#N)c(O)c2c1` had a melting point of more than 250 °C.
In turn, `O=C(O)COc1ccc(SCc2ccc(OCc3ccc(F)cc3C(F)(F)F)cc2)c2c1CCC2` showed a melting point of 125 to 127 °C.
As to `CC(C)(C)NCCCS(=O)(=O)O`, the melting point was more than 280 °C.
As for `COc1ccc2nc(-c3cccc4ccccc34)[nH]c(=O)c2c1`, the figure is 174 to 175 °C.
`C/C=C/c1ccc2c(NCc3ccc(NC(=O)C4CCN(Cc5ccccc5)CC4)cc3)nc(N(C)C)nc2c1` gave a melting point of 154 °C.
`CC(=O)Nc1ccc2c(c1)c(C1=C(c3cn(C)c4ccccc34)C(=O)NC1=O)cn2C` displayed a melting point of 276 to 279 °C.
As for `Cn1nnnc1-c1cn(C)c2cc(N3CCOCC3)ccc2c1=O`, the figure is 235 to 238 °C; as for `COc1cc2ccc([C@](O)(c3c[nH]cn3)C(C)C)cc2cc1OC`, 156 to 157 °C; as for `COc1ccc(O[C@@H]2COc3ccc(OCc4ccccn4)cc3[C@@H]2O)cc1` (relative stereo), 117 to 118 °C.
With `S=C(Cc1ccc(Oc2ccc(I)cc2)cc1)N1CCOCC1`, the melting point fell in the range of 123 to 127 °C.
As to `CN(C)C(=S)Oc1ccc(CC#N)cc1`, the melting point fell in the range of 120 to 124 °C.
Compound `CC(C)(C)OC(=O)N1CCC(C#N)(c2ccccc2Cl)CC1` returned a melting point of 165 to 166 °C.
To `CC1(C)CC(=O)C2=C(C1)NC1=C(C(=O)CC(C)(C)C1)C2c1cccc(-c2ccccc2)c1` belongs 227 to 229 °C.
As for `COc1ccccc1S(=O)(=O)OC(Br)C(=O)c1ccccc1` (configuration not stated), the figure is 90 to 91 °C; as for `CC(=O)Nc1ccc(N2CCN(c3ccc(OCC(O)(Cn4cncn4)c4ccc(Cl)cc4Cl)cc3)CC2)cc1` (configuration not stated), 169 to 171 °C.
The compound `CCC1(CCCBr)C(=O)NC(=O)NC1=O` came in with a melting point of 138 to 140 °C.
As for `O=C(O)c1ccc(OC(F)F)c2oc3ccc(C(F)(F)F)cc3c12`, the figure is 280 °C; as for `O=C(O)c1cc(-n2c(-c3ccc(Br)cc3)cc3c2CCC3)ccc1O`, 215 to 216 °C; as for `CC(C)CN1CCCCC1C(=O)Nc1cc(C(F)(F)F)ccc1-c1cc(Oc2cccc3[nH]c(=O)c(N)nc23)ncn1` (configuration not stated), more than 250 °C.
To `Cc1ccc(CSCc2ccc(C)cc2)cc1` belongs 74 to 76 °C; to `CCCC(=O)c1cnc2ccsc2c1Nc1ccccc1C`, 114 to 116 °C; to `CC1(CNC(=O)CC2CN=C(c3cc4cc(Oc5ccc(S(C)(=O)=O)nc5)cc(OC5CCOCC5)c4[nH]3)S2)COC1` (configuration not stated), 189 to 190 °C.
As to `NS(=O)(=O)c1ccccc1CCl`, the melting point was 156 to 158 °C.
Regarding `O=C(O)COc1ccc(SCc2ccc(-c3ccc(C(F)(F)F)cc3)cc2)c2c1CCCO2`, the melting point lay in the range of 122 to 124 °C.
As for `O=C(CCC(=O)N1Cc2c(cc3ccc4c(c3c2-c2ccc3c(c2)OCO3)OCO4)C1=O)OCc1ccccc1`, the figure is 128 to 129 °C.
`Cc1cc(C=O)cc(C=O)c1OCCCC(c1ccc(F)cc1)c1ccc(F)cc1` came in with a melting point of 97 °C.
`C=CCC1C(=O)N(Cc2ccccc2)c2ccccc2NC1C` (configuration not stated) had a melting point of 81 to 83 °C.
As for `CC(=O)NCCS(=O)C1(Cl)CC2CC(=O)N2C1C(=O)OCc1ccccc1` (configuration not stated), the figure is 89 to 93 °C; as for `CCc1oc2ccccc2c1C(=O)N(Cc1ccccc1)Cc1ccc2c(Br)c(OCC#N)ccc2c1`, 92 to 100 °C; as for `COc1cc(CNc2nc(N)n3nc(-c4ccco4)nc3n2)cc(OC)c1OC`, 221 to 224 °C.
To `Cc1cc(C)c2nc(NCCCN3CCCCC3)n(Cc3nc(C)ccc3O)c2c1` belongs more than 260 °C.
Compound `Cc1cc(C)c2nc(NC3CCN(CCO)CC3)n(Cc3nc(C)ccc3O)c2c1` returned a melting point of 177 °C.
To `C=CC(=O)OCCSc1ccc2sc3ccccc3c(=O)c2c1` belongs 68 to 71 °C; to `COC(=O)C[C@H]1COS(=O)(=O)N1C(=O)OCC1c2ccccc2-c2ccccc21`, 138 to 140 °C; to `NNC(=O)c1ccc(N2CCNC2=O)cc1`, more than 200 °C.
Compound `O=C1C(=Cc2ccc(Br)cc2)CCc2cc(OCCn3ccnc3)ccc21` gave a melting point of 152 to 153 °C.
As for `CCOC(=O)c1cc(SCc2ccccc2)c(Cl)c(S(N)(=O)=O)c1`, the figure is 182 °C; as for `CC(C)(C)c1ccc2c(c1)cc(-c1ccccc1)n2-c1ccc(O)c(C(=O)O)c1`, 271 to 273 °C; as for `Clc1ccc(C2C=Cc3cc(Br)cnc3O2)cc1Cl` (configuration not stated), 100 to 101 °C.
As to `CC#CCOc1ccc(SC(C(=O)O)c2cccc(Cl)c2)cc1` (configuration not stated), the melting point stood at 64 °C.
As for `CCN(C(=O)OC(C)(C)C)n1c(C)nc(N2CCc3ccccc3CC2)c(C#N)c1=O`, the figure is 86 to 88 °C; as for `O=C(N[C@H]1CCC[C@@H]1O)C(O)=CC(=O)c1cc(Cc2ccc(F)cc2F)cn(Cc2ccc(F)cc2)c1=O`, 85 to 86 °C; as for `O=C(NCCN(C1CC1)S(=O)(=O)c1ccccc1[N+](=O)[O-])N1CCN2C(=O)OC(c3ccccc3)(c3ccccc3)C2C1` (configuration not stated), 136 to 138 °C.
To `CCC12CCC(c3ccc(Cl)cc3)(OC1)OC2` belongs 78 °C; to `CC(C)(C)Sc1c(CC(C)(C)C(=O)O)n(Cc2ccc(Cl)cc2)c2ccc(OCc3ccc4ccccc4n3)cc12`, 208 °C.
To `CN(C)Cc1cc2c(cc1O)CCC1C2CCC2(C)C(=O)CCC12` (configuration not stated) belongs 172 to 173 °C.
`CC(C)(C)OC1OC(=O)C2C1C2(C)C` (configuration not stated) came in with a melting point of 115 °C.
`CN1CCN(c2cccc3c2C[C@H](NC(=O)c2ccc(-c4ccccc4)cc2)CC3)CC1` displayed a melting point of 232 to 233 °C.
To `CSc1sc(C(=O)O)c2c1-c1sc(C(=O)O)cc1CC2` belongs more than 300 °C; to `COC(=O)C1C(C)=NC(N2CCCC2)=C(C(=O)OC(C)C)C1c1cccc([N+](=O)[O-])c1` (configuration not stated), 140 °C.
To `CC(=O)Nc1cccc2c1C(C#N)C2` (configuration not stated) belongs less than 50 °C; to `COc1ccc(CNC(=O)c2cc3c(=O)n(CCOc4ccc(Br)cc4)c(=O)n(C)c3s2)cc1`, 184 to 185 °C; to `Cc1nn(-c2c(Cl)cc(Cl)cc2Cl)c(N)c1C(=O)c1ccccc1Cl`, 220 °C.
On to `COc1ccc(C(N)CC(=O)O)cc1OC` (configuration not stated), for which the melting point lay within 208 to 210 °C.
To `CCCCc1oc2ccccc2c1-c1ncc(-c2ccc3cc(OCC#N)ccc3c2)o1` belongs 127 °C.
Turning to `CCCCCC(=O)C=Cc1cc(O)c2c(c1)OC(C)(C)C1CC=C(C)CC21` (configuration not stated), the melting point came out at 119 °C.
`CCOCc1nc(N)c(N)c(=O)[nH]1` showed a melting point of 173 to 175 °C.
`CC(O)c1cc2c(s1)C(=O)c1ccsc1C2=O` (configuration not stated): the melting point is 166 to 168 °C.
As for `NC(C(=O)O)c1ccc(C(=O)O)cc1SCc1ccccc1` (configuration not stated), the figure is 226 °C.
As to `Nc1sc2c(c1C(=O)c1ccc(I)c3ccccc13)CCC2`, the melting point lay within 253 to 255 °C.
As for `COC(=O)c1ccc(-c2cc(-c3ccc(Cl)cc3)on2)cc1`, the figure is 225 to 226 °C; as for `CCn1c(=O)n(C2CCN(CCCCN3C(=O)c4ccccc4S3(=O)=O)CC2)c2ccccc21`, 124 to 125 °C.
To `O=C(NCCCc1ccncc1)N(CCCC(F)(F)F)CCC12CC3CC(CC(C3)C1)C2` belongs 143 to 145 °C; to `Cc1cc(-c2ccc(Cl)cc2)cn2c(-c3nc(-c4cccc(S(N)(=O)=O)c4)no3)cnc12`, 301 °C; to `O=C(O)COc1cccc2c1OCc1sc(SCCC(c3ccccc3)c3ccccc3)nc1-2`, 112 to 114 °C.
`O=C(O)CN(C(=O)CCSC(=O)c1ccccc1)[C@H]1CC[C@H](c2ccccc2)CC1` displayed a melting point of 125 to 128 °C.
Turning to `C=C1CCC(C(=O)OC)Cc2onc(-c3ccc(Cl)cc3)c21` (configuration not stated), the melting point was 113 to 114 °C.
As for `C[C@@H](c1ccc(-c2cc(=O)n(C)cc2F)cc1)N1CC[C@](CC(C)(C)O)(c2ccccc2)OC1=O`, the figure is 183 to 184 °C.
To `CC(=O)NC(=Cc1cccs1)C1=NC(=Cc2ccc([N+](=O)[O-])cc2)C(=O)O1` belongs 196 to 197 °C; to `CS(=O)(=O)Nc1ccc(C(O)(C(F)(F)F)C(F)(F)F)cc1`, 137 to 139 °C.
To `O=C(O)C(O)N1C(=O)CCN1c1ccccc1` (configuration not stated) belongs 127 to 129 °C.
As for `N#Cc1sc2cc(N)ccc2c1Cl`, the melting point fell in the range of 158 to 160 °C.
To `CCOC(=O)c1c(OCC)nsc1NC(=O)N(C)C` belongs 164 to 165 °C; to `CCC1(CCCCN2CCN(c3ccccn3)CC2)C(=O)Nc2ccc(Br)cc21` (configuration not stated), 114 to 115 °C; to `Cc1cc2c(s1)CCCN(CCN1CCN(c3ncccn3)CC1)C2=O`, 137 to 139 °C.
`O=c1[nH]c(-c2ccccc2)c(-c2ccccc2S(=O)(=O)NCCCBr)o1`: the melting point lay within 232 to 235 °C.
To `NC(=O)C1CCN(C(=O)c2ccc(NCc3cnc4nc(N)nc(N)c4n3)cc2)CC1` belongs more than 300 °C; to `N#CC(C#N)C1(C#N)CCSc2ccccc21` (configuration not stated), 136 to 137 °C.

Usually melting point stands for the temperature of the solid-liquid transition.
